Data on four compounds can be found in US20030083338A1, “Compositions and methods for management of serotonin-mediated disorders” (priority 2001, published 2003).

One data set deals with α1 Receptor. Briefly: α1 receptor binding. To be noted: read-out: α1 Receptor Binding IC50, Alpha1.
The test system of the next data set is serotonin uptake. Briefly: Serotonin uptake functional assay (rat cortex synaptosomes). To be noted: for IC50: rat cortex synaptosomes, read-out: Monoamine Neuronal Transport IC50, 5-HT Uptake. The class given is biochemical. As to the method:
Characterization of serotonin uptake is performed using synaptosomes isolated in a 0.32 M sucrose buffer from a male Wistar rat cortex. The uptake of radiolabelled serotonin by synaptosomes (100 μg of proteins/point) is allowed by incubating them for 15 minutes at 37° C. in presence of test compounds and [3H]5-hydroxytryptamin (0.1 μCi/point). The experiment is performed in a deep well.
Synaptosomes and [3H]5-hydroxytryptamin are prepared in a Krebs buffer pH 7.4 containing 25 mM NaHCO3, 11 mM glucose and 50 μM ascorbic acid. This incubation buffer is oxygenated during 5 minutes before incubation. Basal control is incubated for 15 minutes at 4° C. in order to avoid any uptake. Following this incubation the uptake is stopped by filtration through an “unifilter 96-wells GFB” Packard plate washed with Krebs buffer containing 25 mM NaHCO3 in order to eliminate the free [3H]5-hydroxytrptamin. The radioactivity associated to the synaptosomes retained onto the unifilter corresponding to the uptake is then measured with a microplate scintillation counter Topcount, Packard using a scintillation liquid microscint 0, Packard.
[See Perovics and Müller “Pharmacological profile of hypericum extract: effect on serotonin uptake by postsynaptic receptors”, Arzeim.

The test system of a further data set is norepinephrine uptake. Briefly: Norepinephrine uptake functional assay (rat hypothalamus synaptosomes). To be noted: read-out: Monoamine Neuronal Transport IC50, NE uptake. The class given is biochemical. As for the experimental part: Characterization of norepinephrine uptake is performed using synaptosomes isolated at Cerep in a 0.32 M sucrose buffer from a male Wistar rat hypothalamus. The uptake of radiolabeled norepinephrine by synaptosomes (100 μg of proteins/point) is allowed by incubating them for 20 minutes at 37° C. in presence of test compounds and [3H]-norepinephrine (0.1 μCi/point). The experiment is performed in a deep well.
Synaptosomes and [3H]-norepinephrine are prepared in a Krebs buffer pH 7.4 containing 25 mM NaHCO3, 11 mM glucose and 50 μM ascorbic acid. This incubation buffer is oxygenated during 5 minutes before incubation. Basal control is incubated for 20 minutes at 4° C. in order to avoid any uptake. Following this incubation the uptake is stopped by filtration through an “unifilter 96-wells GFB” Packard plate washed with Krebs buffer containing 25 mM NaHCO3 in order to eliminate the free [3H]-norepinephrine. The radioactivity associated to the synaptosomes retained onto the unifilter corresponding to the uptake is then measured with a microplate scintillation counter Topcount, Packard using a scintillation liquid microscint 0, Packard.
[See Perovics and Müller, op.cit. (1995).]

The next data set has as its target T1, CYP1A2 (Homo sapiens, UniProt P05177).
T1 sequence (P05177 1-516): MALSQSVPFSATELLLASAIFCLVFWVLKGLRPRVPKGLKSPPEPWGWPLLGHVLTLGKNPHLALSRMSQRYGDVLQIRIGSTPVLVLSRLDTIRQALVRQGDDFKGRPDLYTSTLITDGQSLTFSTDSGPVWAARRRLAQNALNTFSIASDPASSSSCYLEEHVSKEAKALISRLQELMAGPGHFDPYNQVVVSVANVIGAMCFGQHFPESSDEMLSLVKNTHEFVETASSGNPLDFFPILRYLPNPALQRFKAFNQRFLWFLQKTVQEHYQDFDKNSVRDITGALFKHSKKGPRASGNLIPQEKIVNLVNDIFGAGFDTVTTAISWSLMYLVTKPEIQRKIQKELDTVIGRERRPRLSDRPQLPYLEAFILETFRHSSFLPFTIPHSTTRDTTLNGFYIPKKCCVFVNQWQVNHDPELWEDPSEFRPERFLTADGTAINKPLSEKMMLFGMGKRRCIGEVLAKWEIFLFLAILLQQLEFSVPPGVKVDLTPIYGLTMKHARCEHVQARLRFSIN
Briefly: CYP450 inhibition, CYP1A2. The data set is classed as in vitro ADME. To be noted: parameter and unit inferred.

The next data set concerns the target CYP3A4 (Homo sapiens, UniProt P08684). Briefly: CYP450 inhibition, CYP3A4 BZRes. The class given is in vitro ADME. To be noted: parameter and unit inferred.
In a further data set the target is T2, Human D2 Receptor (Homo sapiens, UniProt P14416).
T2 construct: expressed in transfected cells; host or cells: A9L cells
T2 sequence (P14416 whole entry): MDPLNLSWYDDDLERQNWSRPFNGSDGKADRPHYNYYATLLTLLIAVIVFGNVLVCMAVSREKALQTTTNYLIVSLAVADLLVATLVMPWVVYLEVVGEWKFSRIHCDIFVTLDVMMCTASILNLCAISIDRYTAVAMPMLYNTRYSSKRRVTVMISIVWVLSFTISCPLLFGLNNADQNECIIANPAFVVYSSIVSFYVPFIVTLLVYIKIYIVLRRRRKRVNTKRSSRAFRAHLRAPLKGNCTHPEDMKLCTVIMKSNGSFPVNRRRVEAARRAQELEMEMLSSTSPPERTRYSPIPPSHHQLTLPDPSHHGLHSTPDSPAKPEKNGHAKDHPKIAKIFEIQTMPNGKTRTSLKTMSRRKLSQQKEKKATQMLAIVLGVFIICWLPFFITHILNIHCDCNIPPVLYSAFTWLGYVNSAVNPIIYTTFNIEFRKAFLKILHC
Briefly: Human D2 receptor binding ([3H]spiperone). The conditions noted are these: comment on Table 1. As for the experimental part:
(§1) Dopamine and serotonin receptor binding assays were performed in a standard manner with the incubation of membrane preparations in an assay buffer in the presence of a known radioactively labeled specific ligand for the receptor subtypes. Nonspecific binding was determined by assessing binding in the presence of excess ligand. Specific binding was measured as the total labeled ligand bound after the nonspecific binding was subtracted. The effect of the tested agents was measured by determining the competition for the receptor binding across a concentration range. Subsequently, an IC50 was determined for the agents tested. More specific details are provided below for several of the assays performed.
Aliquots of transfected A9L cell membrane preparations corresponding to 20-40 μg protein are incubated for 60 min at 22° C. in 250 μL of 50 mM Tris-HCl buffer (pH 7.4) containing 120 mM NaCl, 5 mM KCl, 5 mM MgCl2, 1 mM EDTA, 0.3 nM [^3H]spiperone and increasing concentrations of the competing drugs. Nonspecific binding is determined in the presence of 10 μM (+)butaclamol. […] Bound radioactivity is measured with a scintillation counter (Topcount, Packard) using a liquid-scintillation cocktail (Microscint 0, Packard). […]

For a further data set, the target named is T3, Human 5-HT2A Receptor (Homo sapiens, UniProt P28223).
T3 construct: expressed in transfected cells; host or cells: CHO cells
T3 sequence (P28223 whole entry): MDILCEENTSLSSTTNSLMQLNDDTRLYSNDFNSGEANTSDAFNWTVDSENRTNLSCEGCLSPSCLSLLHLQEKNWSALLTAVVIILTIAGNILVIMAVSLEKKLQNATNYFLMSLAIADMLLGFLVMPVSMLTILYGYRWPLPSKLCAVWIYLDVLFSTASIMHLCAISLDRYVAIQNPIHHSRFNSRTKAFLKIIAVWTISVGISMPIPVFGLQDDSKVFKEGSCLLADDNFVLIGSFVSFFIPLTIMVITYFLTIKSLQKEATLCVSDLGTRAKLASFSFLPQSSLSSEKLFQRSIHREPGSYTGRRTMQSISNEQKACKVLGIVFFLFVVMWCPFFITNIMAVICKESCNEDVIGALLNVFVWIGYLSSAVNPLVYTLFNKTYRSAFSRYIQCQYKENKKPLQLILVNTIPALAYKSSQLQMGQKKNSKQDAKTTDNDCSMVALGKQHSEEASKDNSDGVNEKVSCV
Briefly: Human 5-HT2A receptor binding ([3H]ketanserin). The conditions noted are these: comment on Table 2. As to the method:
as §1
Nonspecific binding is determined in the presence of 1 μM ketanserin. […] Bound radioactivity is measured with a scintillation counter (Topcount, Packard) using a liquid scintillation cocktail (Microscint 0, Packard). The reference compound for this assay is ketanserin.

The target in the next data set is CYP2C19 (Homo sapiens, UniProt P33261). Briefly: CYP450 inhibition, CYP2C19. The data set is classed as in vitro ADME. To be noted: parameter and unit inferred.
Chain of CYP2C19 (P33261 whole entry): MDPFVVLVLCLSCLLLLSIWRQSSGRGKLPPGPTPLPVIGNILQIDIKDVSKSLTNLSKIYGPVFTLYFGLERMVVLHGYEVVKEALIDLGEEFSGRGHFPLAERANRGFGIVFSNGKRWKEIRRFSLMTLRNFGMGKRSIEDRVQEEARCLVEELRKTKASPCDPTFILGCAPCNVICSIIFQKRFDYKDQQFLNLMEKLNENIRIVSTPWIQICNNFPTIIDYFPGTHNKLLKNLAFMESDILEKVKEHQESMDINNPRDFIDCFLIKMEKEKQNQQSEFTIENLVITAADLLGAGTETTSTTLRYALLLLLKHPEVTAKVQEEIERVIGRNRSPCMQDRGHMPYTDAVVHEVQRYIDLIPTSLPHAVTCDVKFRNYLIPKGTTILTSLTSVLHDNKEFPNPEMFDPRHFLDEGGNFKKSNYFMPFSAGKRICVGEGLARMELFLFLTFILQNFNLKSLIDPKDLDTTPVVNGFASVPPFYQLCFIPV
The conditions of data set [1]: immediate-release tablets; first-pass metabolism; cited from earlier work.

Chain of CYP3A4 (P08684 whole entry): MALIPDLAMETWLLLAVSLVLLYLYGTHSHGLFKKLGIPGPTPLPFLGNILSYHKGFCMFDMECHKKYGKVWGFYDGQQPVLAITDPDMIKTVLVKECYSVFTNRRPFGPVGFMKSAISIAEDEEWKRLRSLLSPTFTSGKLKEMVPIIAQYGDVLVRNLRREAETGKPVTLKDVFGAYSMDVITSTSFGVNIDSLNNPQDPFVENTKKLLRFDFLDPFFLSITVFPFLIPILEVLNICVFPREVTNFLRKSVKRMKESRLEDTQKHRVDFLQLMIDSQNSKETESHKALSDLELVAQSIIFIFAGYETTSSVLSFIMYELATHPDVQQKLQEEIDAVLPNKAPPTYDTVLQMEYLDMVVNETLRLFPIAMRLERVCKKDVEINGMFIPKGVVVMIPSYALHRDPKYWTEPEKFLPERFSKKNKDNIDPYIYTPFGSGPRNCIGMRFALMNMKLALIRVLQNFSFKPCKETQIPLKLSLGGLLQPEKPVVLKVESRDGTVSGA

As a reminder, the IC50 is the concentration that gives 50% inhibition. On to `CC(O)c1nn(CCCN2CCN(c3cccc(Cl)c3)CC2)c(=O)n1CCOc1ccccc1` (racemic) [(RS)—OH, hydroxynefazodone], for which the 50% inhibitory concentration (IC50) at α1 Receptor was 381 nM; with serotonin uptake it was 500 nM; in the data set on norepinephrine uptake, 1000 nM.
Take `C[C@@H](O)c1nn(CCCN2CCN(c3cccc(Cl)c3)CC2)c(=O)n1CCOc1ccccc1` [(R)—OH, (R)-Hydroxynefazodone]: the half-maximal inhibitory concentration (IC50) on CYP1A2 is above 200 µM; at CYP3A4 it was above 200 µM; on α1 Receptor, 367 nM; in the data set with serotonin uptake, 640 nM; with norepinephrine uptake, 1200 nM.
As to `C[C@H](O)c1nn(CCCN2CCN(c3cccc(Cl)c3)CC2)c(=O)n1CCOc1ccccc1` [(S)—OH], the “Affinity for the D2 receptor (in words)” value on Human D2 Receptor was “excellent affinity”. For the same compound, on Human 5-HT2A Receptor, the “Affinity for 5HT2A receptors (in words)” value is listed as “highest affinity”. Moreover, the IC50 is above 200 µM at CYP1A2, above 200 µM at CYP2C19, 419 nM on α1 Receptor and 790 nM in the data set with serotonin uptake. Besides, in the data set on serotonin uptake (comment on Table 4), the “Activity in inhibiting serotonin uptake (in words)” value is “least active enantiomer”.
As for `CCc1nn(CCCN2CCN(c3cccc(Cl)c3)CC2)c(=O)n1CCOc1ccccc1` [Nefazodone, 2-[3-[4-(3-chlorophenyl)-1-piperazinyl]-propyl-]5-ethyl-2,4-dihydro-4-(2-phenoxy-ethyl)-3H-1,2,4-triazol-3-one, reference compound], the IC50 is above 200 µM on CYP1A2, 306 nM on α1 Receptor, 200 nM with serotonin uptake and 1200 nM in the data set on norepinephrine uptake. In addition, the Bioavailability result in data set [1] is given as “approximately 20%”.
